Laboratory results as given in PMC8945686, “Anticancer Effects with Molecular Docking Confirmation of Newly Synthesized Isatin Sulfonamide Molecular Hybrid Derivatives against Hepatic Cancer Cell Lines” (Biomedicines, 2022).
Marks after values point to notes of the source that are not given here.

Experiments:
[1] = test system: mice; test: In vivo acute (14-day) oral toxicity study; details: for S.ALT / S.AST / S.Creatinine / S.D.Bilirubin / S.T.Bilirubin / S.Urea: 14 days after single dose, compounds 250 mg/kg oral, doxorubicin 15 mg/kg I.P; for Survival over the treatment period (14 days) / Physical or abnormal changes (body weight, skin, fur, eyes, behavior, overall appearance): single acute oral dose of 250 mg/kg; for Physical or abnormal changes (body weight, skin, fur, eyes, behavior, overall appearance): 14 days
From the text: GPower 3.0.10 software was used to estimate the sample size needed for the experiment and the number of mice per group but, according to the Organization for Economic Cooperation and Development (OECD) Test Guidelines No. 407 (OECD, 2008 and updated 2017) and under the International Academy of Science’s Guide for the Care and Use of Laboratory Animals, as well as the ARRIVE guidelines, to use the least number of mice per group for the acute single dose oral toxicity test.
Animals were divided randomly into nine groups (5 animals per group). Before the experiment, the body weight (BW) of all mice was recorded. All mice were made to fast for 24 h and treated once (day zero) then carefully monitored for 14 days.
Normal control group: mice received saline orally once;
Negative control group: mice received vehicle (DMSO) orally once;
Positive control group: mice were injected with Dox (15 mg/kg BW, i.p.) once.
Isatin-sulfonamide-derivative-compound-treated groups (2a, 3a, 3d and 4b, 4c and 4d) of mice received 250 mg/kg BW of each orally once.
The animals’ BWs were recorded at the end of the 14 days of observation. Blood samples were collected from the retro-orbital plexus and allowed to clot. Sera were prepared by centrifugation at 4000 rpm for 15 min and then kept frozen at − 80 °C for liver and kidney function tests (LFTs and KFTs). Thereafter, mice were deprived of food overnight, euthanized, and sacrificed by cervical dislocation. Liver and kidney tissues were collected, washed with ice-cold saline, and weighed. Excised weighed livers and kidneys were fixed in a suitable buffer for histological examination.
Liver and kidney tissues were fixed in 10% neutral buffered formaldehyde overnight and then embedded in paraffin, […] in serial grades of alcohols, cleared in xylene, and were subjected to […], where 4 μm thick tissue sections were cut by rotatory microtome. Tissue sections were stained with hematoxylin and eosin (H and E) for histological examination using full HD light microscopic imaging system (Leica Microsystems GmbH, Wetzlar, Germany). Standard procedures for sample fixation and staining were done as previously described.

[2] = In vitro safety/cell viability MTT assay on normal RPE1 cells; assay type: cell-based, human; details: human, RPE1 cells (noncancerous), normal RPE1 cells, MTT
[3] = test system: Huh7 cells; test: MTT cytotoxicity assay on Huh7 cells; assay type: cell-based, human; details: for IC50: Homo sapiens, Huh-7, 48 h
Description: (§1) MTT-based cell viability assay was carried out to evaluate the antiproliferation potential of the target compounds on HCC cell lines (HepG2 and Huh7). The half maximal inhibitory concentration (IC50) values were calculated against DMSO non-treated HepG2 cells (negative control) and Dox-treated HepG2 cells (positive control). The assay was conducted using 3-(4, 5-di-MethylThiazol-2-yl)-2,5-diphenyl Tetrazolium bromide (MTT) to test cell viability, according to the method described by Mosmann with minor changes. The yellow MTT is reduced in the viable cells to purple formazan. The insoluble formazan is solubilized by DMSO to colored solution measured spectrophotometrically. Briefly, cells were seeded in a 96-well plate at density of 1 × 10^4 cells/well for 24 h in 5% CO2 incubator at 37 °C to allow their adherence. […] After incubation, 20 μL of a 5 mg/mL MTT solution were mixed with the contents of each well, and the plate was incubated for another 4 h. Then, the medium was suctioned, and the wells were washed with PBS. After 2 h of drying, 200 μL of DMSO was added to each well. The plate was set on a shaker to dissolve the formazan crystals. Then, the absorbance was measured spectrophotometrically at 570 nm with a reference wavelength of 630 nm using ELX800 UV universal microplate reader (BioTek Instruments Inc., VT, Santa Clara, CA, USA).
(§2) All experiment conditions were tested in three replicates. The % cell viability was calculated from the following equation: (mean absorbance of treated sample/mean absorbance of negative control sample) × 100. The % death rate = 100 -% cell viability, and the inhibitory concentration of 50% (IC50) was measured from the exponential curve of viability against concentration (dose–response curve).

[4] = test system: HepG2 cells; test: MTT cytotoxicity assay on HepG2 cells; assay type: cell-based; details: Homo sapiens; for cytotoxicity at 100 ppm: 48 h, 100 p.p.m (μg/mL), read-out: % Death Rate at 100 p.p.m (μg/mL) HepG2; for IC50: HepG2, 48 h
Description: as §1, §2

[5] = test system: HepG2 cells; test: Annexin V/FITC-PI apoptosis assay; assay type: cell-based, human; details: HepG2, IC50 of the compound, 24 h (method says 48 h)
Description: Annexin V/PI double staining kit (eBiosciencesDx) was used to detect apoptotic activity of the selected isatin sulfonamide derivatives. The Annexin V corresponding signal provides a very sensitive marker for cellular apoptosis, while PI was used to detect necrotic or late apoptotic cells, identified by the loss of plasma integrity and loss of nuclear membranes.
Briefly, 1 × 10^5 cells/mL of HepG2 cells were seeded into a 6-well plate and incubated at 37 °C, 5% CO2, overnight. […] After time elapsed, trypsinization of cells was carried out. Washing was done by PBS once, followed by fixation using 70% ethanol. Fixed cells were stored at 4 °C for 2 h, then centrifuged at 500× g for 5 min. Again, cells were washed with PBS prior to staining. An amount of 200 μL of the staining solution (annexin V- fluorescein 5-isothiocyanate (FITC) and PI in binding buffer (10 mM HEPES, 140 mM NaCl, and 2.5 mM CaCl2 at pH 7.4)) were added to the cell suspension and incubated at 37 °C for 20 to 30 min in dark and analyzed with a fluorescence-activated cell sorter (FACS) (BD FACSCalibur, BD Biosciences, California, USA). Data were analyzed using ModFit LT v2.0 (Verity Software House, Topsham, Maine, USA).
These plots were divided into four regions corresponding to: • (1) Viable cells, which are negative to both probes (PI/FITC −/−), • (2) Apoptotic cells, which are PI negative and Annexin positive (PI/FITC −/+), • (3) Late apoptotic cells, which are both PI and Annexin positive (PI/FITC +/+), • (4) Necrotic cells, which are PI positive and Annexin negative (PI/FITC+/−).

## Cc1ccc(C(=O)/C=C2\C(=O)Nc3ccc(S(=O)(=O)N4CCCCC4)cc32)cc1 [Compound 4a]
[1]
  S.ALT: 28.14 ± 0.56 ^^ U/L
  S.AST: 36.51 ± 0.15 ^^ U/L
  S.Creatinine: 0.70 ± 0.02 ^^ mg/dL
  S.D.Bilirubin: 0.17 ± 0.004 ^^ mg/dL
  S.T.Bilirubin: 0.72 ± 0.019 ^^ mg/dL
  S.Urea: 55.10 ± 2.96 ^^ mg/dL
  Survival over the treatment period (14 days): survived
  Physical or abnormal changes (body weight, skin, fur, eyes, behavior, overall appearance): No physical or abnormal changes were observed
[2]
  CC50 at 48 h: 21.9 ± 1.15 µM
  viability at 48 h, 100 p.p.m (μg/mL): 0%
[3]
  IC50: > 100 µM
[4]
  cytotoxicity at 100 ppm: 100%
  IC50: 12 ± 0.4 µM

## Nc1ccc(C(=O)CC2(O)C(=O)Nc3ccc(S(=O)(=O)N4CCCCC4)cc32)cc1 (centres unmarked) [Compound 3c]
[5]
  %Cell Death Late Apoptosis: 18.08%
[3]
  IC50: > 100 µM
[4]
  cytotoxicity at 100 ppm: 11.5%
  IC50: > 100 µM

## N#C/C(C(N)=O)=C1/C(=O)Nc2ccc(S(=O)(=O)N3CCCCC3)cc21 [Compound 2b]
[3]
  IC50: > 100 µM
[4]
  cytotoxicity at 100 ppm: 10.2%
  IC50: > 100 µM

## O=C(CC1(O)C(=O)Nc2ccc(S(=O)(=O)N3CCCCC3)cc21)c1ccc(O)cc1 (centres unmarked) [Compound 3d]
[3]
  IC50: > 100 µM
[4]
  cytotoxicity at 100 ppm: 19.5%
  IC50: > 100 µM

## O=C1Nc2ccc(S(=O)(=O)N3CCCCC3)cc2/C1=C/C(=O)c1ccc(O)cc1 [Compound 4d]
[1]
  S.ALT: 30.14 ± 0.93 ^^ U/L
  S.AST: 38.72 ± 1.37 ^#,^ U/L
  S.Creatinine: 0.85 ± 0.03 ^^ mg/dL
  S.D.Bilirubin: 0.18 ± 0.004 ^^ mg/dL
  S.T.Bilirubin: 0.69 ± 0.016 ^^ mg/dL
  S.Urea: 48.18 ± 0.53 ^^ mg/dL
  Survival over the treatment period (14 days): survived
  Physical or abnormal changes (body weight, skin, fur, eyes, behavior, overall appearance): No physical or abnormal changes were observed
[2]
  CC50 at 48 h: 11.9 ± 0.7 µM
  viability at 48 h, 100 p.p.m (μg/mL): 0%
[3]
  IC50: 18.8 ± 0.8 µM
[4]
  cytotoxicity at 100 ppm: 100%
  IC50: 13.3 ± 0.75 µM

## CCOC(=O)/C(C#N)=C1\C(=O)Nc2ccc(S(=O)(=O)N3CCCCC3)cc21 [Compound 2a]
[1]
  S.ALT: 28.42 ± 0.27 ^^ U/L
  S.AST: 37.11 ± 0.35 ^^ U/L
  S.Creatinine: 0.59 ± 0.04 ^^ mg/dL
  S.D.Bilirubin: 0.16 ± 0.003 ^^ mg/dL
  S.T.Bilirubin: 0.65 ± 0.018 ^^ mg/dL
  S.Urea: 52.24 ± 0.65 ^^ mg/dL
  Survival over the treatment period (14 days): survived
  Physical or abnormal changes (body weight, skin, fur, eyes, behavior, overall appearance): No physical or abnormal changes were observed
[2]
  CC50 at 48 h: 40.3 ± 1.61 µM
  viability at 48 h, 100 p.p.m (μg/mL): 4.4%
[3]; 48 h, 100 p.p.m (μg/mL)
  % Death Rate at 100 p.p.m (μg/mL) Huh7: 100 * %
[3]
  IC50: 40 ± 3.8 µM
[4]
  cytotoxicity at 100 ppm: 81.5%
  IC50: 54.6 ± 2 µM

## Nc1cccc(C(=O)CC2(O)C(=O)Nc3ccc(S(=O)(=O)N4CCCCC4)cc32)c1 (centres unmarked) [Compound 3b]
[3]
  IC50: > 100 µM
[4]
  cytotoxicity at 100 ppm: 1.2%
  IC50: > 100 µM
